The text below walks through data of the NIST ThermoML archive (doi:10.1016/j.fluid.2007.03.021).

For the data set the following is noted: Liquid.

Each structure is given as a SMILES string. ± gives the expanded uncertainty stated by the source.

The viscosity is the internal friction of a fluid under shear.

As to `CCO` [ethanol], the viscosity (298.15 K, 101.33 kPa, Capillary tube (Ostwald / Ubbelohde) method) stood at 1.082 ± 0.009 mPa·s. In addition, under “Ebulliometric method (Recirculating still)”, the Normal boiling temperature is 78.28 ± 0.05 °C.
